The experiment concerns C57BL/6 mice. Put plainly: animal or person. It is filed as in vivo. Particulars: Mus musculus, sc, 0.5 h, s.c. administration, 30 min, 55° C. water, read-out: ED50 (mg/kg) at 30 min on C57BL/6 mice in Warm-water Tail-flick Test. (In general: Thermal pain tests record how soon the animal reacts.)
For the compound `CCOCC1(CCc2ccccc2)CCN(Cc2ccc(NC(=O)CC)cc2)CC1` [Compound 81, N-(4-((4-(ethoxymethyl)-4-phenethylpiperidin-1-yl)methyl)phenyl)pro-pionamide], the ED50 is > 10 mg/kg.

On to `CCCCC(=O)Nc1ccc(CN2CCC(CCc3ccccc3)(COCC)CC2)cc1` [Compound 82, N-(4-((4-(ethoxymethyl)-4-phenethylpiperidin-1-yl)methyl)phenyl)pen-tanamide], for which the ED50 is > 10 mg/kg.

In the case of `CCOCC1(CCc2ccccc2)CCN(Cc2ccc(NC(N)=O)cc2)CC1` [Compound 83, 1-(4-((4-(ethoxymethyl)-4-phenethylpiperidin-1-yl)methyl)phenyl)urea], the ED50 is > 10 mg/kg.

As for `CCOCC1(CCc2ccccc2)CCN(Cc2ccc(NC(C)=O)c(F)c2)CC1` [Compound 84, N-(4-((4-(ethoxymethyl)-4-phenethylpiperidin-1-yl)methyl)-2-fluorophenyl)acetamide], the ED50 was > 10 mg/kg.

With `CCOCC1(CCc2ccccc2)CCN(Cc2ccc(NC(C)=O)cc2F)CC1` [Compound 85, N-(4-((4-(ethoxymethyl)-4-phenethylpiperidin-1-yl)methyl)-3-fluorophenyl)acetamide], the ED50 is > 10 mg/kg.

Consider `CCOCC1(CCc2ccccc2)CCN(Cc2ccc(NC(C)=O)s2)CC1.Cl` [Compound 86, N-(5-((4-(ethoxymethyl)-4-phenethylpiperidin-1-yl)methyl)thiophen-2-yl)acetamide HCl], for which the ED50 is > 10 mg/kg.

Consider `CCOCC1(CCc2ccccc2)CCN(Cc2cnc(NC(C)=O)s2)CC1` [Compound 87, N-(5-((4-(ethoxymethyl)-4-phenethylpiperidin-1-yl)methyl)thiazol-2-yl)acetamide], for which the ED50 was > 10 mg/kg.

Turning to `CCOCC1(CCc2ccccc2)CCN(Cc2ccc(NCC(F)(F)F)cc2)CC1` [Compound 88, 4-((4-(ethoxymethyl)-4-phenethylpiperidin-1-yl)methyl)-N-(2,2,2-trifluoroethyl)aniline], the ED50 is > 10 mg/kg.

Take `CCOCC1(CCc2ccccc2)CCN(Cc2ccc(C(N)=O)cc2)CC1` [Compound 89, 4-((4-(ethoxymethyl)-4-phenethylpiperidin-1-yl)methyl)benzamide]: the ED50 is > 10 mg/kg.

For the compound `CCOCC1(CCc2ccccc2)CCN(Cc2ccc(C(=O)NC)cc2)CC1` [Compound 90, 4-((4-(ethoxymethyl)-4-phenethylpiperidin-1-yl)methyl)-N-methylbenzamide], the ED50 was > 10 mg/kg.

Turning to `CC(=O)Nc1ccc(CN2CCC(CCc3ccccc3)(C3CCO3)CC2)cc1` (stereo not shown) [Compound 91, N-(4-((4-(oxetan-2-yl)-4-phenethylpiperidin-1-yl)methyl)phenyl)acetamide], the ED50 was < 10 mg/kg.

`CCOCC1(CCc2ccccc2)CCN(Cc2ccc(NC(C)=O)cn2)CC1` [Compound 92, N-(6-((4-(ethoxymethyl)-4-phenethylpiperidin-1-yl)methyl)pyridin-3-yl)acetamide]: the ED50 is > 10 mg/kg.

In the case of `CCCOCC1(CCc2ccccc2)CCN(Cc2ccc(NC(C)=O)cc2)CC1` [Compound 93, N-(4-((4-phenethyl-4-(propoxy-methyl)piperidin-1-yl)methyl)phenyl)acetamide], the ED50 is > 10 mg/kg.

Regarding `CC(=O)Nc1ccc(CN2CCC(CCc3ccccc3)(C3CO3)CC2)cc1` (stereo not shown) [Compound 94, N-(4-((4-(oxiran-2-yl)-4-phenethylpiperidin-1-yl)methyl)phenyl)acetamide], the ED50 is > 10 mg/kg.

With `CCOCC1(CCc2ccccc2)CCN(Cc2ccc(NC(=O)C(C)C)cc2)CC1` [Compound 95, N-(4-((4-(ethoxymethyl)-4-phenethylpiperidin-1-yl)methyl)phenyl)iso-butyramide], the ED50 is > 10 mg/kg.

In the case of `CCOCC1(CCc2ccccc2)CCN(Cc2ccc(NC(C)=O)cc2)C1` (stereo not shown) [Compound 96, N-(4-((3-(ethoxymethyl)-3-phenethylpyrrolidin-1-yl)methyl)phenyl)acetamide], the ED50 is < 10 mg/kg.

For `CCOCC1(CCc2ccccc2)CN(Cc2ccc(NC(C)=O)cc2)C1.Cl` [Compound 97, N-(4-((3-(ethoxymethyl)-3-phenethylazetidin-1-yl)methyl)phenyl)acetamide HCl], the ED50 is > 10 mg/kg.

With `CCOCC1(CCc2ccccc2)CCCN(Cc2ccc(NC(C)=O)cc2)CC1` (stereo not shown) [Compound 98, N-(4-((4-(ethoxymethyl)-4-phenethylazepan-1-yl)methyl)phenyl)acetamide], the ED50 was > 10 mg/kg.

Consider `CCOCC1(CCc2ccccc2)CN(CCc2ccc(NC(C)=O)cc2)C1` [Compound 99, N-(4-(2-(3-(ethoxymethyl)-3-phenethylazetidin-1-yl)ethyl)phenyl)acetamide], for which the ED50 is > 10 mg/kg.

Consider `C=CCCC1(COCC)CCN(Cc2ccc(NC(C)=O)cc2)CC1` [Compound 100, N-(4-((4-(but-3-enyl)-4-(ethoxymethyl)piperidin-1-yl)methyl)phenyl)acetamide], for which the ED50 is > 10 mg/kg.

On to `CCOCC1(CCC2CC2)CCN(Cc2ccc(NC(C)=O)cc2)CC1` [Compound 101, N-(4-((4-(2-cyclopropylethyl)-4-(ethoxymethyl)piperidin-1-yl)methyl)phenyl)acetamide], for which the ED50 is > 10 mg/kg.

For `CCOCC1(CCc2cccs2)CCN(Cc2ccc(NC(C)=O)cc2)CC1.Cl` [Compound 102, N-(4-((4-(ethoxymethyl)-4-(2-(thiophen-2-yl)ethyl)piperidin-1-yl)methyl)phenyl)acetamide HCl], the ED50 is < 10 mg/kg.

Turning to `CCOCC1(CCc2nccs2)CCN(Cc2ccc(NC(C)=O)cc2)CC1.Cl` [Compound 103, N-(4-((4-(ethoxymethyl)-4-(2-(thiazol-2-yl)ethyl)piperidin-1-yl)methyl)phenyl)acetamide HCl], the ED50 is > 10 mg/kg.

For the compound `CCOCC1(CCc2ccc(F)cc2)CCN(Cc2ccc(NC(C)=O)cc2)CC1` [Compound 104, N-(4-((4-(ethoxymethyl)-4-(4-fluoro-phenethyl)piperidin-1-yl)methyl)phenyl)acetamide], the ED50 was > 10 mg/kg.

Take `CCOCC1(CCc2ccc(O)cc2)CCN(Cc2ccc(NC(C)=O)cc2)CC1.Cl` [Compound 105, N-(4-((4-(ethoxymethyl)-4-(4-hydroxy-phenethyl)piperidin-1-yl)methyl)phenyl)acetamide HCl]: the ED50 was > 10 mg/kg.

Consider `CCOCC1(CCc2ccc(OC)cc2)CCN(Cc2ccc(NC(C)=O)cc2)CC1.Cl` [Compound 106, N-(4-((4-(ethoxymethyl)-4-(4-methoxy-phenethyl)piperidin-1-yl)methyl)phenyl)acetamide HCl], for which the ED50 was > 10 mg/kg.

Take `CC(=O)Nc1ccc(CN2CCC(CCc3ccccc3)(COC(F)F)CC2)cc1` [Compound 107, N-(4-((4-((difluoro-methoxy)methyl)-4-phenethylpiperidin-1-yl)methyl)phenyl)acetamide]: the ED50 is > 10 mg/kg.

For the compound `CCOCC1(CCc2ccccc2)CCN(Cc2ccc3[nH]c(=O)[nH]c3c2)CC1` [Compound 108, 5-((4-(ethoxymethyl)-4-phenethylpiperidin-1-yl)methyl)-1H-benzo[d]imidazol-2(3H)-one], the ED50 was > 10 mg/kg.

Turning to `CCOCC1(CCc2ccccc2)CCN(Cc2ccc3c(c2)CC(=O)N3)CC1` [Compound 109, 5-((4-(ethoxymethyl)-4-phenethylpiperidin-1-yl)methyl)indolin-2-one], the ED50 is > 10 mg/kg.

Turning to `CCOCC1(CCc2ccccc2)CCN(Cc2ccc3[nH]ccc3c2)CC1` [Compound 110, 5-((4-(ethoxymethyl)-4-phenethylpiperidin-1-yl)methyl)-1H-indole], the ED50 is > 10 mg/kg.

Consider `CCOCC1(CCc2ccccc2)CCN(Cc2ccc3[nH]c(=O)oc3c2)CC1` [Compound 111, 6-((4-(ethoxymethyl)-4-phenethylpiperidin-1-yl)methyl)benzo[d]oxazol-2(3H)-one], for which the ED50 was > 10 mg/kg.

In the case of `CCOCC1(CCc2ccccc2)CCN(Cc2ccc3[nH]cnc3c2)CC1` [Compound 112, 5-((4-(ethoxymethyl)-4-phenethylpiperidin-1-yl)methyl)-1H-benzo[d]imidazole], the ED50 is > 10 mg/kg.

Consider `CC(=O)Nc1ccc(CN2CCC(CCc3ccccc3)(COC3CCCC3)CC2)cc1` [Compound 113, N-(4-((4-(cyclopentyloxy-methyl)-4-phenethylpiperidin-1-yl)methyl)phenyl)acetamide], for which the ED50 was > 10 mg/kg.

As to `CC(=O)Nc1ccc(CN2CCC(CCc3ccccc3)(COc3ccccc3)CC2)cc1` [Compound 114, N-(4-((4-phenethyl-4-(phenoxy-methyl)piperidin-1-yl)methyl)phenyl)acet-amide], the ED50 was > 10 mg/kg.

As for `CCOCC1(CCc2ccccc2)CCN(Cc2ccc(NC(=O)C(F)(F)F)cc2)CC1` [Compound 115, N-(4-((4-(ethoxymethyl)-4-phenethylpiperidin-1-yl)methyl)phenyl)-2,2,2-trifluoroacetamide], the ED50 was > 10 mg/kg.

As to `CCOCC1(CCc2ccccc2)CCN(Cc2ccc(NC(=O)N(C)C)cc2)CC1` [Compound 116, 3-(4-((4-(ethoxymethyl)-4-phenethylpiperidin-1-yl)methyl)phenyl)-1,1-dimethylurea], the ED50 was > 10 mg/kg.

For `CCOCC1(CCc2ccccc2)CCN(Cc2ccc(NC(=O)NC)cc2)CC1` [Compound 117, 1-(4-((4-(ethoxymethyl)-4-phenethylpiperidin-1-yl)methyl)phenyl)-3-methylurea], the ED50 was > 10 mg/kg.

Take `CC(=O)Nc1ccc(CN2CCC(CCc3ccccc3)(C3OC3C)CC2)cc1` (stereo not shown) [Compound 118, N-(4-((4-(3-methyloxiran-2-yl)-4-phenethylpiperidin-1-yl)methyl)phenyl)acetamide]: the ED50 was > 10 mg/kg.

For the compound `CCNc1ccc(CN2CCC(CCc3ccccc3)(CNC)CC2)cc1` [Compound 119, N-ethyl-4-((4-((methylamino)methyl)-4-phenethylpiperidin-1-yl)methyl)aniline], the ED50 was > 10 mg/kg.

For the compound `CC(=O)Nc1ccc(CN2CCC(CCc3ccccc3)(C3CCO3)C2)cc1` (stereo not shown) [Compound 120, N-(4-((3-(oxetan-2-yl)-3-phenethylpyrrolidin-1-yl)methyl)phenyl)acetamide], the ED50 was < 10 mg/kg.

Values taken from US11584765B2 (priority 2017, dated 2023).
